From article PMC7721589, “Synthesis and structure-activity relationships for tetrahydroisoquinoline-based inhibitors of Mycobacterium tuberculosis” (Bioorganic & Medicinal Chemistry, 2020)
pIC50: −log10 of the molar value. Values after ≈ are worked out from the molar mass of the structure shown. Where two headings read alike, the source gives them in different places.

Experiments:
[1] = system: M.tb strain H37Rv; assay: MIC against M.tb H37Rv under aerobic (replicating; MABA) conditions; type: cell-based, Mycobacterium tuberculosis; details: for MIC MABA: MIC90, Table 1; for MIC: Mycobacterium tuberculosis, MIC90, Table 1, read-out: MIC MABA
[2] = system: Vero green monkey-derived epithelial kidney cells; assay: Mammalian cytotoxicity in Vero cells; type: cell-based; details: Table 1; for IC50: Chlorocebus sabaeus
[3] = Stability in CDCl3 solution; type: physicochemical; details: over 1–2 days
Text: Note: The X = OMe compounds 8 and 9 were unstable in CDCl3 solution over 1–2 days.

[4] = system: M.tb strain H37Rv; assay: MIC against M.tb H37Rv under non-replicating (LORA) conditions; details: for MIC LORA: MIC90, Table 1
[5] = target: M. smegmatis ATP synthase (Mycolicibacterium smegmatis, UniProt A0R205+A0R206); assay: Inhibition of mycobacterial ATP synthase; type: biochemical; details: for M. smeg ATPsynth IC50 / pIC50: M. smegmatis ATP synthase; for pIC50: read-out: M. smeg ATPsynth IC50; for selectivity over the human enzyme: M. smegmatis vs human mitochondrial ATP synthase
[6] = target: human mitochondrial ATP synthase (Homo sapiens, UniProt P00846+P05496); assay: Inhibition of human mitochondrial ATP synthase; type: biochemical
[7] = Microsomal clearance in human liver microsomes
[8] = Microsomal clearance in mouse liver microsomes
[9] = human, microsomes
[10] = mouse, microsomes

Sequence of human mitochondrial ATP synthase (P05496 62-136): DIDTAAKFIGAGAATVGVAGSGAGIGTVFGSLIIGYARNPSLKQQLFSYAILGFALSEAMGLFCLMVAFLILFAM
Sequence of human mitochondrial ATP synthase (P00846 whole entry): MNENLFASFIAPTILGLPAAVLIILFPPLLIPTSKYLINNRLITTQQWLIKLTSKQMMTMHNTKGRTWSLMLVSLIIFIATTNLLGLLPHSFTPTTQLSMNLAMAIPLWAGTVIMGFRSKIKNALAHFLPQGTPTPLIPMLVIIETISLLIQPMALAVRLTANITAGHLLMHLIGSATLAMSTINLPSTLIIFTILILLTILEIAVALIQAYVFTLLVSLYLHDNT
Sequence of human mitochondrial ATP synthase (P06576 48-529, further chain): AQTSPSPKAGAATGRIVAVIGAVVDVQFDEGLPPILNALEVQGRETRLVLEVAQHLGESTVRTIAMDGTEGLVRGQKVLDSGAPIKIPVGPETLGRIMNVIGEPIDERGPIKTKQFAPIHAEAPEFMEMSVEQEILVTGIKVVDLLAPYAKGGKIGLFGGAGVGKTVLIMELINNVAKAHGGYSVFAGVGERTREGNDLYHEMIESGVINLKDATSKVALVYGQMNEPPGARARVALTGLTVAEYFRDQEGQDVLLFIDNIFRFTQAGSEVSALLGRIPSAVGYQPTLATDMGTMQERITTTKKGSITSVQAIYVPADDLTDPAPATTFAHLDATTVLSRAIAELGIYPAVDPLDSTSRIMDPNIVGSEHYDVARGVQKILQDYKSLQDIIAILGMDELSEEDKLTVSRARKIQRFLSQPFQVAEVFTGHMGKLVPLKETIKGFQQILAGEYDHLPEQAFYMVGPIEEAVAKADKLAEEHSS
Sequence of human mitochondrial ATP synthase (P25705 44-553, further chain): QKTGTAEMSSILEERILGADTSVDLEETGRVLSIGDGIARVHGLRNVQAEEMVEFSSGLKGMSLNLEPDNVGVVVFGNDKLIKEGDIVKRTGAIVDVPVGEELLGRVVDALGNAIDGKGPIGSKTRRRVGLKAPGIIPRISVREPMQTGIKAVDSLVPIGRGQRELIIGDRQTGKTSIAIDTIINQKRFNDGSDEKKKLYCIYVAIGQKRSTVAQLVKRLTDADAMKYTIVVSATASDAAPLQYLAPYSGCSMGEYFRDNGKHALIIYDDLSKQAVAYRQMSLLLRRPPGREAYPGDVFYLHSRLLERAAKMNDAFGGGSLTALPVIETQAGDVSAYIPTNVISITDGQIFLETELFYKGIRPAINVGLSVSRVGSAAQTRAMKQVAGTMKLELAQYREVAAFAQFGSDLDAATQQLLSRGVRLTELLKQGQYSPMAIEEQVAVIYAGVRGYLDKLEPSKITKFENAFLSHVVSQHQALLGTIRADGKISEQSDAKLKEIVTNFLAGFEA
Sequence of human mitochondrial ATP synthase (P30049 23-168, further chain): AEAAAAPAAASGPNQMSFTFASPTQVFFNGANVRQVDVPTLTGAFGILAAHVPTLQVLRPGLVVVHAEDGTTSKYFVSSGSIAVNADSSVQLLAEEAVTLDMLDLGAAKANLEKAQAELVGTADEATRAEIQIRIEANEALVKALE
Sequence of human mitochondrial ATP synthase (P36542 26-298, further chain): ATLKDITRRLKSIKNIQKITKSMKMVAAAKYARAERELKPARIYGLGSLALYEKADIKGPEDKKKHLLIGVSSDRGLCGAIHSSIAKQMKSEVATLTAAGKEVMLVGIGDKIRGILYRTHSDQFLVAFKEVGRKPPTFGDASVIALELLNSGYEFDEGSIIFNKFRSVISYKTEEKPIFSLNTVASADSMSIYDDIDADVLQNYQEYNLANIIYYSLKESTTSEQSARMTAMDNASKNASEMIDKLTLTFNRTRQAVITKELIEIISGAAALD

Row | Molecule | MIC MABA [1] [µg/mL] | IC50 VERO [2] [µg/mL] | stability in CDCl3 solution [3] | MIC LORA [4] [µg/mL] | M. smeg ATPsynth IC50 [5] [µg/mL] | Mamm. ATPsynth IC50 [6] [µg/mL] | HLM Clint [7] | MLM Clint [8] | MIC [1] [µg/mL] | IC50 [2] [µg/mL] | pIC50 [5] | HLM Clint [9] | MLM Clint [10] | selectivity over the human enzyme [5] [fold] | melting point [°C] | MIC (µg/mL) MABA ([1]; MIC90, Table 2) [µg/mL] | MIC (µg/mL) LORA ([4]; MIC90, Table 2) [µg/mL]
1 | N-(5-(3,5-bis(trifluoromethyl)phenyl)pyridin-2-yl)-5-methoxy-8-(4-methylpiperazin-1-yl)-3,4-dihydroisoquinoline-2(1H)-carboxamide [Compound 9] | 7.9 | 19 | unstable | 12 |  |  |  |  |  |  |  |  |  |  |  |  | 
2 | COc1ccc(N2CCN(C)CC2)c2c1CCN(C(=O)Nc1ccc(-c3ccc(Cl)cc3C)cn1)C2 [Compound 8, N-(5-(4-Chloro-2-methylphenyl)pyridin-2-yl)-5-methoxy-8-(4-methylpiperazin-1-yl)-3,4-dihydroisoquinoline-2(1H)-carboxamide] | 1.9 (≈ 3.75 µM) | 12 (≈ 23.7 µM) | unstable | 3.6 (≈ 7.11 µM) | 4.2 | 16 | 17 | 42 |  |  |  |  |  |  |  |  | 
3 | N-(5-(4-chloro-2-methylphenyl)pyridin-2-yl)-5-methyl-8-(4-methylpiperazin-1-yl)-3,4-dihydroisoquinoline-2(1H)-carboxamide [Compound 6] | 1.9 | 22 |  | 2.4 | 5.5 | 23 | 22 | 35 |  |  |  |  |  |  |  |  | 
4 | N-(5-(4-(tert-butyl)phenyl)pyridin-2-yl)-5-methyl-8-(4-methylpiperazin-1-yl)-3,4-dihydroisoquinoline-2(1H)-carboxamide [Compound 7] | 1.4 | 18 |  | 3.4 |  |  | 41 | 56 |  |  |  |  |  |  |  |  | 
5 | CCc1ccc(N2CCN(C)CC2)c2c1CCN(C(=O)Nc1ccc(-c3ccc(C(F)(F)F)cc3)cn1)C2 [Compound 27, 5-Ethyl-8-(4-methylpiperazin-1-yl)-N-(5-(4-(trifluoromethyl)phenyl)pyridin-2-yl)-3,4-dihydroisoquinoline-2(1H)-carboxamide] |  |  |  | 0.9 (≈ 1.72 µM) |  |  |  |  | 1 (≈ 1.91 µM) | 12 (≈ 22.9 µM) | 5.38 | 107 | 810 |  |  |  | 
6 | CN1CCN(c2cccc3c2CN(Cc2ccc(-c4ccc(Cl)cc4)cn2)CC3)CC1 [Compound 10, 2-((5-(4-Chlorophenyl)pyridin-2-yl)methyl)-8-(4-methylpiperazin-1-yl)-1,2,3,4-tetrahydroisoquinoline] |  |  |  | 16 (≈ 37 µM) |  |  |  |  | 1.8 (≈ 4.16 µM) | 16 (≈ 37 µM) | 4.78 | 121 | 238 | > 70 |  |  | 
7 | Cc1ccc(N2CCN(C)CC2)c2c1CCN(C(=O)N1CCC(Oc3ccc(OC(F)(F)F)cc3)CC1)C2 [Compound 48, (5-Methyl-8-(4-methylpiperazin-1-yl)-3,4-dihydroisoquinolin-2(1H)-yl)(4-(4-(trifluoromethoxy)phenoxy)piperidin-1-yl)methanone] |  |  |  | 3.9 (≈ 7.32 µM) |  |  |  |  | 6.4 (≈ 12 µM) | 19 (≈ 35.7 µM) |  | 48 | 40 |  |  |  | 
8 | Cc1cc(Cl)ccc1-c1ccc(NC(=O)N2CCc3c(F)ccc(N4CCN(C)CC4)c3C2)nc1 [Compound 42, N-(5-(4-Chloro-2-methylphenyl)pyridin-2-yl)-5-fluoro-8-(4-methylpiperazin-1-yl)-3,4-dihydroisoquinoline-2(1H)-carboxamide] |  |  |  | 5.4 (≈ 10.9 µM) |  |  |  |  | 1.2 (≈ 2.43 µM) | 12 (≈ 24.3 µM) | 5.44 | 50 | 65 | 9.4 | 98 to 101 |  | 
9 | 2-((5-(4-Chlorophenyl)pyridin-2-yl)methyl)-8-(4-methylpiperazin-1-yl)-5-methyl-1,2,3,4-tetrahydroisoquinoline [Compound 12] | 0.79 | 14 |  | 5.2 |  |  | 92 | 239 |  |  |  |  |  |  |  | 0.79 | 5.2
10 | Cc1ccc(N2CCN(C)CC2)c2c1CCN(C(=O)Nc1ccc(-c3cc(C(F)(F)F)cc(C(F)(F)F)c3)cn1)C2 [Compound 26, N-(5-(3,5-Bis(trifluoromethyl)phenyl)pyridin-2-yl)-5-methyl-8-(4-methylpiperazin-1-yl)-3,4-dihydroisoquinoline-2(1H)-carboxamide] |  |  |  | 5.3 (≈ 9.18 µM) |  |  |  |  | 3.1 (≈ 5.37 µM) | > 32 | 4.62 |  |  |  | 114 to 117 |  | 
11 | COc1ccc(N2CCN(C)CC2)c2c1CCN(C(=O)Nc1ccc(-c3ccc(Cl)cc3Cl)cn1)C2 [Compound 36, N-(5-(2,4-Dichlorophenyl)pyridin-2-yl)-5-methoxy-8-(4-methylpiperazin-1-yl)-3,4-dihydroisoquinoline-2(1H)-carboxamide] |  |  |  |  |  |  |  |  | 1.9 (≈ 3.61 µM) | > 32 | 5.24 | 48 | 584 |  | 108 to 111 |  | 
